In patent US10953015B2, “Use of adenosine receptor signaling to regulate P-gp function” (CORNELL UNIVERSITY, priority 2016, dated 2021):

Columns and labels:
[1] = cited from earlier work
[2] = tested on: P-gp; assay: Epirubicin accumulation and P-gp staining in MCF7 cells (fluorescence microscopy); format: cell-based, human; conditions: 1 μM
Protocol: MCF7 cells (human breast cancer cell line) were cultured in 24 well plates until they reached confluency. FIGS. 17A-17C are images of western blots of cells treated with vehicle control (i.e., DMSO) (“D”) or 1 μM of the broad spectrum AR agonist NECA (“N”) (FIG. 17A), 1 μM of the A2A AR agonist Lexiscan® (“L”) (FIG. 17B), or 1 μM of the A2B AR agonist BAY60 (“B”) (FIG. 17C), respectively for 24, 48, 72 hours. Cells were lysed with lysis buffer and expression levels of P-gp, MMP9, or VEGF analyzed by western blot. GAPDH was used as loading a control. FIG. 17D is a graph of experimental results showing that Lexiscan® down-regulates P-gp expression in MCF7 breast cancer cells. MCF7 breast cancer cells were treated with Lex (0.25 μM) concomitant with Rhodamine 123 (“Rho123”). […] Students T test, P<0.001. […] FIG. 17E is a fluorescence microscopy image showing MCF7 breast cancer cells grown on coverslips and treated with vehicle (DMSO, control), or A2 AR agonists, Lexiscan® (1 μM) or A1193 (1 μM) for 15 minutes in the presence of epirubicin. Cells were stained with an antibody to P-gp and mounted with DAPI. FIG. 17F is a graph of the fluorescent intensity quantified from FIG. 17E by measuring the mean fluorescent intensity (“MFI”) of epirubicin (pink) that is present in cell nuclei. ***=P<0.0001.
To further assess the modulation of A2A AR agonists on P-gp expression in MCF7 cells, applicants evaluated the accumulation of the P-gp substrate epirubicin in MCF7 cells. MCF7 cells were treated with DMSO (control), 1 μM Lexiscan®, or 1 μM of the A2A AR agonist A1193. […] In this case, the down-regulation of P-gp expression is equivalent to down-regulation of its function (Kim et al., “A2A Adenosine Receptor Modulates Drug Efflux Transporter P-Glycoprotein at the Blood-Brain Barrier,” J Clin Invest. 126(5):1717-33 (2016), which is hereby incorporated by reference in its entirety).

[3] = tested on: P-gp; assay: P-gp expression in Caco-2 human tumor cell line (IFA MFI, western blot); format: cell-based; conditions: 1 μM for 30 minutes (IFA), 1, 0.5, 0.1 μM (western blot)
Protocol: FIG. 19A are fluorescence microscopy images of Caco-2 cells (originally isolated from a human primary colonic tumor) grown on coverslips and treated with Lexiscan® (1 μM) or A1193 (1 μM), or DMSO (vehicle) control for 30 minutes. Next, cells were fixed, permeabilized, and stained with an antibody to P-gp. After washing, cells were mounted with DAPI for nuclear staining. FIG. 19B is a graph of the MFI of P-gp. FIG. 19C is a graph of densitometric analysis of a western blot of Caco-2 cells treated with Lexiscan® in varying concentrations (1, 0.5, and 0.1 μM). Densitometric analysis was performed to quantify the amount of P-gp in western blot. Statistics: two tailed student's t test for FIG. 19B, *<0.5.
Applicants also evaluated whether A2A AR agonists can modulate P-gp expression in a human tumor cell line, Caco-2 cells. Briefly, Caco-2 cells (originally isolated from a human tumor) were grown on coverslips and treated with Lexiscan®, A1193, or vehicle control for 30 minutes. Cells were then fixed, permeabilized, and stained with an antibody to P-gp. After washing, cells were mounted with DAPI for nuclear staining (FIG. 19A). The mean fluorescence intensity (MFI) of P-gp was quantified and graphed in FIG. 19B.

[4] = tested on: P-gp; assay: P-gp solubility and secretion in HBMVEC (RIPA lysate, CSK cytoskeletal fraction, media); format: cell-based, human
From the text: FIG. 8A is a schematic diagram of the experimental procedure for analysis of Lexiscan®'s effect on P-gp solubility and excretion in primary brain endothelial cells (“HBMVEC”). FIGS. 8B-8C are western blots and graphs summarizing the experimental result of each western blot. FIGS. 8B-8C show the analysis of P-gp expression of HBMVEC upon activation with Lexiscan® at different time points after lysis with RIPA buffer (FIG. 8B) or CSK buffer to measure P-gp levels in the cytoskeletal fraction (FIG. 8C). Band intensity was normalized to GAPDH and graphed. […] Band intensity was normalized using GAPDH and plotted. FIG. 8E is a western blot of secreted P-gp in HBMVEC upon activation with Lexiscan® in absence or presence of an MMP9 inhibitor: both short and long exposures of western blot from MMP9 inhibitor-treated samples are shown. Band intensity was plotted as a graph. FIG. 8F is a western blot showing the results of an Immunoprecipitation assay of MMP9 with lysate from HBMVEC treated with vehicle (control) or 1 μM of Lexiscan® for 5 minutes. P-gp was pulled down using anti-P-gp antibody and immunoblotted with an anti-MMP9 antibody. FIG. 8G is an immunofluorescence microscopy image of MMP9 on HBMVEC treated with control (top panel) or 1 μM of Lexiscan® (middle panel) for 5 minutes. Cells were stained with P-gp (green) and MMP9 (red). Nucleus was counterstained with DAPI (blue). […] Cell-surface colocalization of P-gp and MMP9 is indicated by arrows. The scale bars indicates 25 μm (upper and middle panels); 5 μm (bottom panels). FIG. 8H is a graph summarizing the intensity of fluorescence of MMP9 from FIG. 8G. Fluorescent intensity of MMP9 was quantified and plotted as graph (n=20). **P<0.01 (2-tailed Student's t test, 1 representative result of 3 different experiments).
HCMEC-D3 and HBMVEC cells were plated in 12-well plates and were grown until they reached 100% confluency. […] The intensity of band was analyzed with densitometric analysis and plotted as a graph for analysis of time-course effect of AR signaling on P-gp expression.

Row | SMILES | half-life [1] [h] | P-gp expression (antibody staining) ([2]; 15 minutes) | Epirubicin accumulation (MFI in cell nuclei) ([2]; 15 minutes in the presence of epirubicin) | P-gp expression [3] | Secreted P-gp released into the media [4] | P-gp level in cytoskeletal fraction (CSK buffer) ([4]; up to 60 minutes) | P-gp level in whole lysate (RIPA buffer) ([4]; up to 60 minutes)
1 | CCNC(=O)[C@H]1O[C@@H](n2cnc3c(N)ncnc32)[C@H](O)[C@@H]1O [NECA, (2S,3S,4R,5R)-5-(6-aminopurin-9-yl)-N-ethyl-3,4-dihydroxyoxolane-2-carboxamide] | 5 |  |  |  |  |  | 
2 | CNC(=O)c1cnn(-c2nc(N)c3ncn([C@@H]4O[C@H](CO)[C@@H](O)[C@H]4O)c3n2)c1 [Lexiscan®, 1-[6-amino-9-[(2R,3R,4S,5R)-3,4-dihydroxy-5-(hydroxymethyl)oxolan-2-yl]purin-2-yl]-N-methylpyrazole-4-carboxamide] |  | down-regulate P-gp expression | retained more epirubicin than those treated with control | down-regulates P-gp expression in Caco-2 | An increase in secreted P-gp that was released into the media | P-gp levels increased at from 5 to 15 minutes, returned to baseline by 30 minutes | P-gp levels declined compared with vehicle control beginning at 5 minutes and were maintained for up to 60 minutes
